Source: PubChem BioAssay AID179 (DTP/NCI, 2004)
Several values for one entry are separate records, joined by “and”; a condition that tells them apart may be missing. Equal entries are not always repeated. Activity calls are given as the source filed them.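 How the source made its calls: active means compounds giving half or more protection of infected cells from virus-caused growth loss, again on retest; inactive means the rest.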

Test system: CEM cells HIV-1 protection, formazan growth assay
Experiment: NCI AIDS Antiviral Assay
Conditions: for IC50: measured here: growth of uninfected CEM cells
Summary of the method: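 CEM (human) cells, HIV-1 infected vs uninfected, 5-point dosing, formazan growth read-out. Retest threshold 50% protection.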

Compound	EC50	IC50	outcome
CS1(C)=Nc2c([N+](=O)[O-])cc([N+](=O)[O-])cc2S(=O)(=O)N=1	> 112 µM	58.9 µM	–
CC(=O)OCC1OC(n2c(N)c(C#N)c(-c3ccccc3)c(C#N)c2=S)C(OC(C)=O)C(OC(C)=O)C1OC(C)=O (centres undefined)	> 200 µM	> 200 µM	–
CC(=O)OCCCC(NC(=O)OC(C)(C)C)C(=O)NC(CCCOC(C)=O)C(=O)NC(Cc1ccc([N+](=O)[O-])cc1)C(=O)NCC(=O)OCc1ccccc1 (centres undefined)	> 200 µM	16.2 µM	–
Cc1nc2ccccc2c(=O)n1NC(=O)Cc1ccccc1	> 200 µM	> 200 µM	–
S=c1n(-c2ccc(Cl)cc2)c2/c(=N\Nc3cc(Cl)ccc3Cl)c(n1-c1ccccn1)=NCCN=2	> 200 µM	> 200 µM	–
c1ccc(C[P+](c2ccccc2)(c2ccccc2)c2ccc3ccccc3c2-c2c([P+](Cc3ccccc3)(c3ccccc3)c3ccccc3)ccc3ccccc23)cc1	> 257 µM	0.389 µM and 2.51 µM	–
O=C1OCc2cc3cc4c(cc3c(-c3ccc5c(c3)OCO5)c21)OCO4 (tested in a mixture with another compound)	–	–	inactive
Nc1[nH]c(=S)c2c(N)n[nH]c2c1C(=O)Nc1ccccc1	> 200 µM	91.2 µM	–
Cc1ccc(S(=O)(=O)N2CCC[C@@H]2C(=O)O[C@@H]2CCC3CC=CC32)cc1 (some centres undefined)	> 200 µM	12.6 µM	–
CC(=O)[O-].O=[N+]([O-])c1ccc([O-])c(C=NCCN=Cc2cc([N+](=O)[O-])ccc2[O-])c1.[Mn+3]	> 229 µM	4.37 µM	–
O=C(NCc1ccc(Cl)c(Cl)c1)c1nc2ccccc2nc1NCc1ccc(Cl)c(Cl)c1	> 126 µM	55 µM	–
CC1(C)C2C=CC1(C)C1(CC2)OCCO1 (centres undefined)	> 200 µM	> 200 µM	–
Cc1ccc(/C=C2\CNC/C(=C\c3ccc(C)cc3)C2=O)cc1	> 3.98 µM	> 3.98 µM	–
COc1nc(C)nc2c1ncn2Cc1ccccc1	> 200 µM	> 200 µM	–
CCCN(CCCN)/[N+]([O-])=N\O	> 8910 µM	1580 µM	–
CCOC(=O)c1ccc(CSc2ccc(N)cc2)c([N+](=O)[O-])c1	> 40.7 µM	> 40.7 µM	–
CC12CCC[C@@](C)(C(=O)OC3OC(CO)C(O)C(O)C3O)[C@H]1CCC13CC4CC(OC4(CO)[C@H]1O)[C@@H]23 (some centres undefined)	–	–	inactive
Cc1csc2c(P(=O)(OC(C)C)OC(C)C)c(-c3ccccc3)cn12	> 200 µM	33.1 µM	–
OC1C(O)C2(C[C@H]1Br)OC(COCc1ccccc1)[C@@H](COCc1ccccc1)O2 (some centres undefined)	–	–	inactive
CCCCCCCCCCCCCCCCNC(=S)N/C=C(/C#N)C(=O)OC	–	–	inactive
Cc1ccc(S(=O)(=O)N/C(=C\C=C\c2ccccc2)C(=O)C(C)(C)C)cc1	38.9 µM	57.5 µM	–

Compound	EC50	IC50	outcome
O=P(c1ccccc1)(c1ccccc1)C1CC=C2CCCCCC2C1 (centres undefined)	> 5.37 µM	> 5.37 µM	–
CC1c2c(cc(=O)[nH]c2O)C(=O)N1C (centres undefined)	> 245 µM	> 245 µM	–
C/C=C\C(=O)C#Cc1cnc(OC)nc1OC	> 2 µM	0.0912 µM	–
CCCCCCCCCCCCCCCCCC(=O)NCCCNCCCNC(=O)CCCCCCCCCCCCCCCCC	> 12.6 µM	> 12.6 µM	–
Cc1cc(Cl)ccc1NC(=O)C(=O)C(C(=O)c1ccccc1)C1OC(=O)c2ccccc21 (centres undefined)	> 562 µM	302 µM	–
CC[C@@H]1CC2CN3CCc4c([nH]c5cc(OC)c(OC)cc45)C(C(=O)OC)(C2)C13 (some centres undefined)	–	–	inactive
CCCN(CCC)C(=O)c1c(Cl)c2cccnc2n2c(C)cnc12	> 200 µM	70.8 µM	–
CCCCCCCCCCCCCCCCCCNc1nc(=O)n(C2CC(O)C(COP(=O)(O)OCC3OC(n4cc(C)c(=O)[nH]c4=O)CC3N=[N+]=[N-])O2)cc1F (centres undefined)	0.759 µM	3.63 µM	–
C#CC(C)(C)Oc1cc(OC)c2c(=O)c3ccccc3n(C)c2c1	> 200 µM	11 µM	–
CC1=Nc2nnnn2N=C(C)C1	> 234 µM	> 234 µM	–
Cc1oncc1NC1=CC(=O)C(=O)c2ccccc21	> 200 µM	8.51 µM	–
CCCCCCCCCCCCCNC1=C(O)c2ccccc2C(=O)C1=O	–	–	inactive
Cc1ccc(N=Nc2ccc(O)c(CN(C)C)c2)cc1	> 200 µM	21.9 µM	–
O=[N+]([O-])c1cc(F)ccc1S(=O)(=O)c1ccccc1	> 200 µM	35.5 µM	–
O=N/C(=C(\c1ccccc1)N1CCOCC1)c1ccccc1	–	–	inactive
C1=NCCNCCNCCN=Cc2ccc(cc2)OCc2cccc(n2)COc2ccc1cc2	> 50.1 µM	> 50.1 µM	–
CCCNC(=O)SCc1ccccc1	–	–	inactive
Cc1cn(C2CCC(CO)O2)c(=O)[nH]c1=O (centres undefined)	162 µM	> 200 µM	–
CC[C@H](O)[C@H](C)C=C1SCCCS1	> 200 µM	> 200 µM	–
COc1cccc([N+](=O)[O-])c1N=O	> 200 µM	102 µM	–
